Experimental data reported in publication PMC10259452 (Journal of Medicinal Chemistry, 2023).
Where two headings read alike, the source gives them in different places.

How the values were obtained:
[1] = dog, microsomes, pH 7.4
[2] = microsomes
[3] = rat, microsomes, pH 7.4
[4] = mouse, microsomes, pH 7.4
human GAL4-RORγ = target: T1, human GAL4-RORγ (Homo sapiens, UniProt P51449); assay: human GAL4-RORγ reporter assay; type: cell-based
T1 sequence (P51449 269-508 limits assumed): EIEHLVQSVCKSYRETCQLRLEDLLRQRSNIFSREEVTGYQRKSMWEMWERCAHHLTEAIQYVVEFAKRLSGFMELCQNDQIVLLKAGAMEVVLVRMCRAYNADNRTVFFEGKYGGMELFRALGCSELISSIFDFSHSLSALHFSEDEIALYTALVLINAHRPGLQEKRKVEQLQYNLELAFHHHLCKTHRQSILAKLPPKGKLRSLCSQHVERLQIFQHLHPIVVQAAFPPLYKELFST

[5] = human, microsomes, pH 7.4
[6] = test system: human peripheral blood mononuclear cells (PBMCs)
[7] = pH 7.4

Row | Structure (SMILES) | microsomal stability Clin [1] | intrinsic clearance (Clin) grade in words [2] | microsomal stability Clin [3] | microsomal stability Clin [4] | MDR1-MDCKII permeability in the A–B direction, grade in words (MDR1-MDCKII cells; MDCK-MDR1) | Caco-2 permeability in the A–B direction, grade in words (Caco-2 cells; Caco-2) | recovery in Caco-2 permeability assay (Caco-2 cells; human, Caco-2, pH 7.4) | microsomal stability Clin [5] | dependence of solubility on pH (in words) [7] | reduction in IL17A+ cells compared to control (in words) [6] | other results
1 | CSc1ncc(Cl)c(C(=O)Nc2sc3c(c2C(=O)NCc2ccccc2)CCCC3)n1 [Compound 2, N-(3-(Benzylcarbamoyl)-4,5,6,7-tetrahydrobenzo[b]thiophen-2-yl)-5-chloro-2-(methylthio) Pyrimidine-4-carboxamide] | 127/126/267/115 μL/min/mg | moderate | 127/126/267/115 μL/min/mg | 127/126/267/115 μL/min/mg | moderate | moderate | < 80% | 127/126/267/115 μL/min/mg |  | greatest reduction | IC50 (human GAL4-RORγ): 0.75 nM; IL17A secretion from polarized PBMCs compared to the vehicle [6]: decreased; IL21 secretion from polarized PBMCs compared to the vehicle [6]: decreased; cell death / cell viability by flow cytometry [6]: no sign of cell death or decrease in cell viability; reduction in percentage of IL17A+ cells [6]: 40–60%; reduction of percentage of IL17A+ cells, multiple donors [6]: 20–40%; reduction of percentage of IL21+ cells, multiple donors [6]: 20–40%
2 | CCC1CCc2c(sc(NC(=O)c3ccnn3C)c2C(=O)Nc2ccccc2C)C1 (centres unmarked) [Compound 4, N-(6-Ethyl-3-{[(2-methylphenyl)amino]carbonyl}-4,5,6,7-tetrahydro-1-benzothien-2-yl)-1-methyl-1H-pyrazole-5-carboxamide] | 11/22/29/24 μL/min/mg |  | 11/22/29/24 μL/min/mg | 11/22/29/24 μL/min/mg |  |  | < 80% | 11/22/29/24 μL/min/mg | not affected |  | 
3 | CC1CCc2c(sc(NC(=O)c3ccccc3F)c2C(=O)N2CCN(C)CC2)C1 (centres unmarked) [Compound 6, 2-Fluoro-N-{6-methyl-3-[(4-methyl-1-piperazinyl)carbonyl]-4,5,6,7-tetrahydro-1-benzothien-2-yl} Benzamide] | 546/91/116/60 μL/min/mg | moderate | 546/91/116/60 μL/min/mg | 546/91/116/60 μL/min/mg |  |  |  | 546/91/116/60 μL/min/mg | inversely proportional |  | 
4 | O=C(CN1CCCCC1)Nc1sc2c(c1C(=O)NCc1ccccc1)CCCC2 [Compound 9, N-Benzyl-2-[(1-piperidinylacetyl)amino]-4,5,6,7-tetrahydro-1-benzothiophene-3-carboxamide] |  |  |  |  |  |  |  |  |  | greatest reduction | 

Second part, led by results:

Row | microsomal stability Clin [1] | intrinsic clearance (Clin) grade in words [2] | microsomal stability Clin [3] | microsomal stability Clin [4] | MDR1-MDCKII permeability in the A–B direction, grade in words (MDR1-MDCKII cells; MDCK-MDR1) | Caco-2 permeability in the A–B direction, grade in words (Caco-2 cells; Caco-2) | recovery in Caco-2 permeability assay (Caco-2 cells; human, Caco-2, pH 7.4) | microsomal stability Clin [5] | dependence of solubility on pH (in words) [7] | Structure (SMILES) | reduction in IL17A+ cells compared to control (in words) [6] | other results
5 | 322/36/118/41 μL/min/mg | moderate | 322/36/118/41 μL/min/mg | 322/36/118/41 μL/min/mg | moderate | low permeability |  | 322/36/118/41 μL/min/mg |  | CSc1ncc(Cl)c(C(=O)Nc2sc3c(c2C(=O)NC2CCS(=O)(=O)C2)CCC(C)C3)n1 (centres unmarked) [Compound 3, 5-Chloro-N-(3-{[(1,1-dioxidotetrahydro-3-thienyl)amino]-carbonyl}-6-methyl-4,5,6,7-tetrahydro-1-benzothien-2-yl)-2-(methylthio)-4-pyrimidine-carboxamide] |  | stability in acidic pH (in words) [7]: unstable; active efflux / P-gp substrate in MDR1-MDCKII (MDR1-MDCKII cells; MDCK-MDR1): active efflux and are P-gp substrates; effect of cyclosporine A on efflux ratio in MDR1-MDCKII cells (MDR1-MDCKII cells; MDCK-MDR1): completely blocked; active efflux in Caco-2 (Caco-2 cells; Caco-2): active efflux; effect of verapamil on efflux ratio in Caco-2 (Caco-2 cells; Caco-2): decreased partially; IC50 (human GAL4-RORγ): 2.19 nM
6 | 319/214/115/132 μL/min/mg | moderate | 319/214/115/132 μL/min/mg | 319/214/115/132 μL/min/mg | moderate | moderate | < 80% | 319/214/115/132 μL/min/mg |  | CN1CCN(CC(=O)Nc2sc3c(c2C(=O)NCc2ccccc2)CCCC3)CC1 [Compound 10, N-Benzyl-2-{[(4-methyl-1-piperazinyl) Acetyl]amino}-4,5,6,7-tetrahydro-1-benzothiophene-3-carboxamide] | greatest reduction | IC50 (human GAL4-RORγ): 0.82 nM; IL17A secretion from polarized PBMCs compared to the vehicle [6]: decreased; IL21 secretion from polarized PBMCs compared to the vehicle [6]: decreased; reduction in percentage of IL17A+ cells [6]: 40–60%
7 | 2345/510/942/260 μL/min/mg | high | 2345/510/942/260 μL/min/mg | 2345/510/942/260 μL/min/mg | low permeability | low permeability | < 80% | 2345/510/942/260 μL/min/mg |  | CC1CCN(CC(=O)Nc2sc3c(c2C(=O)NCc2ccccc2)CCCC3)CC1 [Compound 11, N-Benzyl-2-{[(4-methyl-1-piperidinyl) Acetyl]amino}-4,5,6,7-tetrahydro-1-benzothiophene-3-carboxamide] |  | MDR1-MDCKII permeability efflux cyclosporine A (MDR1-MDCKII cells; dog, MDCK-MDR1, pH 7.4): 0.7; Caco-2 permeability efflux verapamil (Caco-2 cells; human, Caco-2, pH 7.4): 1.2
8 | 71/67/97/53 μL/min/mg |  | 71/67/97/53 μL/min/mg | 71/67/97/53 μL/min/mg | high | high permeability |  | 71/67/97/53 μL/min/mg |  | CC1CCCN1C(=O)c1c(NC(=O)c2cccnc2)sc2c1CCCC2 (centres unmarked) [Compound 12, N-(3-(2-Methylpyrrolidine-1-carbonyl)-4,5,6,7-tetrahydro-benzo[b]thiophen-2-yl) Nicotinamide] |  | 
9 | 414/404/507/369 μL/min/mg | moderate | 414/404/507/369 μL/min/mg | 414/404/507/369 μL/min/mg |  |  |  | 414/404/507/369 μL/min/mg |  | C[C@@H]1CCN(C(=O)c2c(NC(=O)c3cccnc3)sc3c2CCCC3)[C@H](C)C1 [Compound 13, N-(3-((2R,4R)-2,4-Dimethylpiperidine-1-carbonyl)-4,5,6,7-tetrahydrobenzo[b]thiophen-2-yl) Nicotinamide] | greatest reduction | IL17A secretion from polarized PBMCs compared to the vehicle [6]: decreased; IL21 secretion from polarized PBMCs compared to the vehicle [6]: decreased; reduction in percentage of IL17A+ cells [6]: 40–60%
10 | 2142/954/887/332 μL/min/mg | high | 2142/954/887/332 μL/min/mg | 2142/954/887/332 μL/min/mg |  |  |  | 2142/954/887/332 μL/min/mg | inversely proportional | Cn1ccnc1SCC(=O)Nc1sc2c(c1C(=O)NCc1ccccc1)CCCC2 [Compound 16, N-Benzyl-2-(2-((1-methyl-1H-imidazole-2-yl)thio)acetamido)-4,5,6,7-tetrahydrobenzo[b]thiophene-3-carboxamide] |  | 
11 | 46/23/7/11 μL/min/mg |  | 46/23/7/11 μL/min/mg | 46/23/7/11 μL/min/mg | moderate | moderate |  | 46/23/7/11 μL/min/mg | inversely proportional | O=C(Nc1sc2c(c1C(=O)N1CCC(CO)C1)CCCC2)c1cccnc1 (centres unmarked) [Compound 17, N-(3-(3-(Hydroxymethyl)pyrrolidine-1-carbonyl)-4,5,6,7-tetrahydrobenzo[b]thiophen-2-yl) Nicotinamide] |  | active efflux / P-gp substrate in MDR1-MDCKII (MDR1-MDCKII cells; MDCK-MDR1): active efflux and are P-gp substrates; active efflux in Caco-2 (Caco-2 cells; Caco-2): active efflux
